Experimental data: PMC10298284, “Synthesis and hLDH Inhibitory Activity of Analogues to Natural Products with 2,8-Dioxabicyclo[3.3.1]nonane Scaffold” (International Journal of Molecular Sciences, 2023)
Several values for one entry are separate records, joined by “and”; a condition that tells them apart may be missing. Equal entries are not always repeated. Where two headings read alike, the source gives them in different places.

Tests used:
recombinant human LDHB [1] = biological target: T1, recombinant human LDHB (Homo sapiens, UniProt P07195); test: hLDHB enzymatic activity assay (same fluorimetric protocol); format: biochemical; conditions: mean ± SD of n = 3 replicates
T1 construct: purchased Abcam
Description: (§1) Briefly, the decrease in the coenzyme β-NADH fluorescence (λemission = 460 nm) was measured for 10 min, at different concentration of inhibitors, and its slope was compared with the one obtained when there were not inhibitors added (100% enzymatic activity).
The ability of the synthesized compounds to inhibit the hLDHB enzyme was measured using recombinant human LDHB (95%, specific activity >300 units/mg and concentration of 1.0 mg/mL, Abcam, Cambridge, UK) following the same fluorimetric protocol described in Section 3.4.

recombinant human LDHA [2] = biological target: T2, recombinant human LDHA (Homo sapiens, UniProt P00338); test: hLDHA enzymatic activity assay (kinetic spectrofluorimetric, β-NADH fluorescence decrease); format: biochemical; conditions: for IC50: mean ± SD of n = 3 replicates; for Selectivity Rate (IC50 hLDHB/hLDHA): ratio IC50 hLDHB / IC50 hLDHA
T2 construct: purchased Abcam
Description: as §1
The enzymatic assay was conducted on 96-well microplates and the decrease in the β-NADH fluorescence (λexcitation = 340 nm; λemission = 460 nm) was detected in a TECAN Infinite 200 Pro M Plex fluorescent plate reader (Tecan Instrument, Inc.) at 28 °C. The activity was determined according to our previously described protocol. The final volume in each well was set to 200 µL using 100 mM potassium phosphate buffer, 0.041 units/mL LDHA, 155 µM β-NADH, 1 mM pyruvate (saturated conditions), and DMSO solutions (5%, v/v) of pure compounds at concentrations in the range of 1–600 µM. The addition of pyruvate allowed the beginning of the reaction and fluorescence was registered every 60 s during 10 min. A lineal time interval was selected to calculate the slope at every single concentration. […] The slope obtained at each concentration was compared to the one obtained for the 100% enzymatic activity control to determine the corresponding enzymatic activity. A nonlinear regression analysis in GraphPad Prism version 9.00 for Windows (GraphPad Software, La Jolla, CA, USA) was used for dose response curve, fitting of logarithm of inhibitor concentration vs. normalized enzymatic activity, to calculate IC50 values (Supplementary Material section). All measurements were made in triplicate and data were expressed as the mean ± SD.

recombinant human LDHB [3] = biological target: T1, recombinant human LDHB; design: method as in PMID 36113265; conditions: compounds evaluated previously, included for comparative purposes; read-out: hLDHB IC50; cited from earlier work
recombinant human LDHA [4] = biological target: T2, recombinant human LDHA; design: method as in PMID 36113265; conditions: compounds evaluated previously, cited from earlier work; for IC50: included for comparative purposes, read-out: hLDHA IC50; for Selectivity Rate (IC50 hLDHB/hLDHA): ratio IC50 hLDHB / IC50 hLDHA
[5] = 1 mM pyruvate, 155 µM β-NADH, pH 7.3, 28 °C, read-out: hLDHA IC50
[6] = supplementary dose response curves, µM only on the axis label, read-out: IC50 (hLDHA inhibition curve)
[7] = supplementary dose response curves, µM only on the axis label, read-out: IC50 (hLDHB inhibition curve)

T1 sequence (P07195 whole entry): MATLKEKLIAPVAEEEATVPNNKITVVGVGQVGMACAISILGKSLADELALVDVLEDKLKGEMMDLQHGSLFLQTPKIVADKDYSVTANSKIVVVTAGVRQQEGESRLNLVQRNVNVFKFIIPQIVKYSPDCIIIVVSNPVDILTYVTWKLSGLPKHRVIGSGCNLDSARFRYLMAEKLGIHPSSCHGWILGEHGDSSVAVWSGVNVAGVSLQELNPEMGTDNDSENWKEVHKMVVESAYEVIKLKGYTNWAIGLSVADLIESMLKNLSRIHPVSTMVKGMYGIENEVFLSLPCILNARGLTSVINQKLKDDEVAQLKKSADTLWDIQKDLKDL

Row | melting point | IC50 (recombinant human LDHB [1]; read-out: hLDHB IC50) | IC50 (recombinant human LDHA [2]; [5]) | Selectivity Rate (IC50 hLDHB/hLDHA) (recombinant human LDHA [2]) | IC50 (recombinant human LDHA [2]; [6]) | IC50 (recombinant human LDHB [1]; [7]) | Selectivity Rate (IC50 hLDHB/hLDHA) (recombinant human LDHA [2]; listed as 65a) | Selectivity Rate (IC50 hLDHB/hLDHA) (recombinant human LDHA [2]; listed as 67a) | Structure (SMILES) | Selectivity Rate (IC50 hLDHB/hLDHA) (recombinant human LDHA [2]; listed as 50) | IC50 (recombinant human LDHB [3]) | IC50 (recombinant human LDHA [4]) | Selectivity Rate (IC50 hLDHB/hLDHA) (recombinant human LDHA [4])
1 | 77 to 80 °C (dec.) | 293.1 ± 2.4 µM | 154 ± 11.3 µM | 1.9 | 154 ± 11.3 µM | – | – | – | COc1ccc(C23CC(c4ccccc4O2)c2c(O)cc(O)cc2O3)cc1OC (racemic) [(±)-42, 2-(3′,4′-Dimethoxyphenyl)-chromane-(4→4″, 2→O-5″)-phloroglucinol] | – | – | – | –
2 | 108 to 111 °C | > 300 µM | 112 ± 3 µM | >2.7 | 112 ± 3 µM | – | – | – | COc1ccc(C2CC3=C(C(=O)O2)C2CC(c4ccc(OC)c(OC)c4)(O3)Oc3ccc(Cl)cc32)cc1 (racemic) [(±)-70a, 2-(3′.4′-Dimethoxyphenyl)-6-chlorochromane-(4→3″, 2→O-4″)-4″-hydroxy-6″-(4‴-methoxyphenyl)-5″,6″-dihydro-2H-pyran-2″-one] | – | – | – | –
3 | – | – | – | – | – | – | – | – | O=[N+]([O-])c1ccc2c(c1)C1CC(c3ccc(O)c(O)c3)(O2)Oc2cc(O)cc(O)c21 (racemic) [(±)-2] | – | 28.6 ± 1.9 µM | 9.7 ± 1.1 µM | 3.0
4 | – | – | – | – | – | 45.9 ± 1.5 µM | – | – | Oc1ccc(C23CC(c4ccccc4O2)c2c(O)cc(O)cc2O3)cc1 (racemic) [(±)-4] | – | – | 60 ± 4.7 µM | 0.8
5 | 172 to 175 °C | > 300 µM | 52.8 ± 5.3 µM | >5.7 | 52.8 ± 5.3 µM | – | – | – | COc1ccc(C2CC3=C(C(=O)O2)C2CC(c4ccc(OC)c(OC)c4)(O3)Oc3ccccc32)cc1 (racemic) [(±)-64a, 2-(3′,4′-Dimethoxyphenyl)-chromane-(4→3″, 2→O-4″)-4″-hydroxy-6″-(4‴-methoxyphenyl)-5″,6″-dihydro-2H-pyran-2″-one] | – | – | – | –
6 | 194 to 196 °C | 28.1 ± 0.4 µM | < 10 µM and 5.8 µM | 4.8 | 5.8 µM | – | – | – | COc1ccc(C23CC(C4=C(CC(c5ccc(Cl)cc5)OC4=O)O2)c2cc([N+](=O)[O-])ccc2O3)cc1OC (racemic) [(±)-66a, 2-(3′,4′-Dimethoxyphenyl)-6-nitrochromane-(4→3″, 2→O-4″)-6″-(4‴-chlorophenyl)-4″-hydroxy-5″,6″-dihydro-2H-pyran-2″-one] | – | – | – | –
7 | 198 to 200 °C | 269 ± 11 µM | 12.5 ± 1.1 µM | 21.5 | 12.5 ± 1.1 µM | – | > 10 | – | COc1ccc(C23CC(C4=C(CC(c5ccccc5)OC4=O)O2)c2cc([N+](=O)[O-])ccc2O3)cc1OC (racemic) [(±)-65a, 2-(3′,4′-Dimethoxyphenyl)-6-nitrochromane-(4→3″, 2→O-4″)-4″-hydroxy-6″-phenyl-5″,6″-dihydro-2H-pyran-2″-one] | – | – | – | –
8 | 247 to 250 °C | – | 27.4 ± 0.6 µM | 1.1 | 27.4 ± 0.6 µM | – | – | – | O=C1C2=C(C(=O)c3ccccc31)C1CC(c3ccc(O)c(O)c3)(O2)Oc2ccc([N+](=O)[O-])cc21 (racemic) [(±)-55, 2-(3′.4′-Dihydroxyphenyl)-6-nitrochromane-(4→3″, 2→O-2″)-2″-hydroxy-1″,4″-naphthoquinone] | – | – | – | –
9 | – | – | – | – | – | 35.4 ± 0.8 µM | – | – | Oc1cc(O)c2c(c1)OC1(c3ccc(O)c(O)c3)CC2c2ccccc2O1 (racemic) [(±)-1] | – | – | 73.1 ± 2.5 µM | 0.5
10 | – | – | – | – | – | – | – | – | Oc1ccc(C23CC(c4cc(Cl)ccc4O2)c2c(O)cc(O)cc2O3)cc1 (racemic) [(±)-6] | – | 85.5 ± 2.5 µM | 26.7 ± 0.8 µM | 3.2
11 | 172 to 175 °C | 141 ± 2.5 µM | 20 ± 0.6 µM | 7.1 | 20 ± 0.6 µM | – | – | – | COc1ccc(C23CC(C4=C(CC(c5ccc(Cl)cc5)OC4=O)O2)c2cc(Cl)ccc2O3)cc1OC (racemic) [(±)-69a, 2-(3′,4′-Dimethoxyphenyl)-6-chlorochromane-(4→3″, 2→O-4″)-6″-(4‴-chlorophenyl)-4″-hydroxy-5″,6″-dihydro-2H-pyran-2″-one] | – | – | – | –
12 | 193 to 195 °C | 65.3 ± 2.1 µM | < 10 µM and 8.2 µM | 8.0 | 8.2 ± 0.2 µM | – | – | – | COc1ccc(C23CC(c4cc([N+](=O)[O-])ccc4O2)c2c(O)cc(O)cc2O3)cc1OC (racemic) [(±)-43, 2-(3′,4′-Dimethoxyphenyl)-6-nitrochromane-(4→4″, 2→O-5″)-phloroglucinol] | – | – | – | –
13 | 162 to 164 °C | > 300 µM | 14.8 ± 0.6 µM | >20.3 | 14.8 ± 0.6 µM | – | – | > 10 | COc1ccc(C2CC3=C(C(=O)O2)C2CC(c4ccc(OC)c(OC)c4)(O3)Oc3ccc([N+](=O)[O-])cc32)cc1 (racemic) [(±)-67a, 2-(3′,4′-Dimethoxyphenyl)-6-nitrochromane-(4→3″, 2→O-4″)-4″-hydroxy-6″-(4‴-methoxyphenyl)-5″,6″-dihydro-2H-pyran-2″-one] | – | – | – | –
14 | – | – | – | – | – | – | – | – | Oc1cc(O)c2c(c1)OC1(c3ccc(O)c(O)c3)CC2c2cc(Cl)ccc2O1 (racemic) [(±)-3] | – | 39.7 ± 2.8 µM | 15.7 ± 2.7 µM | 2.5
15 | 300 to 302 °C (dec.) | 119 ± 2.7 µM | 13.7 ± 0.6 µM | 8.7 | 13.7 ± 0.6 µM | – | – | – | O=C1C2=C(C(=O)c3ccccc31)C1CC(c3ccc(O)c(O)c3)(O2)Oc2ccc(Cl)cc21 (racemic) [(±)-56, 2-(3′,4′-Dihydroxyphenyl)-6-chlorochromane-(4→3″, 2→O-2″)-2″-hydroxy-1″,4″-naphthoquinone] | – | – | – | –
16 | – | – | – | – | – | – | – | – | O=[N+]([O-])c1ccc2c(c1)C1CC(c3ccc(O)cc3)(O2)Oc2cc(O)cc(O)c21 (racemic) [(±)-5] | – | 69.7 ± 4.7 µM | 24.4 ± 2.7 µM | 2.9

Row | Structure (SMILES) | melting point | IC50 (recombinant human LDHB [1]; read-out: hLDHB IC50) | IC50 (recombinant human LDHA [2]; [5]) | Selectivity Rate (IC50 hLDHB/hLDHA) (recombinant human LDHA [2]) | IC50 (recombinant human LDHA [2]; [6]) | IC50 (recombinant human LDHB [1]; [7]) | Selectivity Rate (IC50 hLDHB/hLDHA) (recombinant human LDHA [2]; listed as 65a) | Selectivity Rate (IC50 hLDHB/hLDHA) (recombinant human LDHA [2]; listed as 67a) | Selectivity Rate (IC50 hLDHB/hLDHA) (recombinant human LDHA [2]; listed as 50) | IC50 (recombinant human LDHB [3]) | IC50 (recombinant human LDHA [4]) | Selectivity Rate (IC50 hLDHB/hLDHA) (recombinant human LDHA [4])
17 | COc1ccc(C23CC(c4cc(Cl)ccc4O2)c2c(c4ccccc4oc2=O)O3)cc1OC (racemic) [(±)-50, 2-(3′,4′-Dimethoxyphenyl)-6-chlorochromane-(4→3″, 2→O-4″)-4″-hydroxycoumarin] | 130 to 133 °C | > 300 µM | 13.2 ± 0.8 µM | >22.7 | 13.2 ± 0.8 µM | – | – | – | > 10 | – | – | –
18 | O=c1oc2ccccc2c2c1C1CC(c3ccc(O)c(O)c3)(Oc3ccc(Cl)cc31)O2 (racemic) [(±)-47, 2-(3′,4′-Dihydroxyphenyl)-6-chlorochromane-(4→3″, 2→O-4″)-4″-hydroxycoumarin] | 98 to 100 °C (dec.) | 14.3 ± 0.9 µM | < 10 µM and 9.1 µM | 1.6 | 9.1 ± 0.5 µM | – | – | – | – | – | – | –
19 | COc1ccc(C23CC(c4cc([N+](=O)[O-])ccc4O2)c2c(c4ccccc4oc2=O)O3)cc1OC (racemic) [(±)-49, 2-(3′,4′-Dimethoxyphenyl)-6-nitrochromane-(4→3″, 2→O-4″)-4″-hydroxycoumarin] | 142 to 144 °C | 212.3 ± 1.4 µM | 25.7 ± 0.3 µM | 8.3 | 25.7 ± 0.3 µM | – | – | – | – | – | – | –
